Patent publication US11974988B2, “Neuroprotective compositions and methods of using the same” (The Board of Supervisors of Louisiana State Univer …, priority 2018, dated 2024)
pIC50: −log10 of the molar value. Values after ≈ are worked out from the molar mass of the structure shown. “Also recorded” adds a separate entry of the source. Like-named read-outs stand apart in the source and are kept apart here.

Tests used:
[1] = system: activity-regulated Gln/MeAIB transport (SNAT activity) in hippocampal neurons; assay: Activity-regulated (spontaneous, 4-AP- or K+-stimulated) [14C]-MeAIB transport in primary hippocampal neurons; type: cell-based, rat; set-up: block of transport activity: dose or concentration left out as unconfirmed
[2] = SKA-41 concentrations in plasma and brain by LC/MS after i.p. injection; type: in vivo; conditions: rat; for concentration at 1 h: male, intraperitoneal, 10 mg/kg i.p., n=3 rats
Description: Twelve week-old male Sprague-Dawley rats were purchased from Charles River Laboratories (Wilmington, Mass.) and housed in microisolator cages with rodent chow and autoclaved water ad libitum. All experiments were in accordance with National Institutes of Health guidelines and approved by the University of California, Davis Institutional Animal Care and Use Committee.
SKA-41 is dissolved in Miglyol 812 neutral oil (caprylic/capric triglyceride; Trade name Neobee M5, Spectrum Chemicals, Gardena, Calif., USA) at 1 mg/mL and injected intraperitoneally at 10 mg/kg. After 1 hour, rats (n=3) are subjected to cardiac puncture under deep isoflurane anesthesia and then sacrificed before removing the brain. Blood is collected into EDTA blood sample collection tubes. Plasma is separated by centrifugation and samples stored at −80° C. pending analysis.
Commercial SPE cartridges (Hypersep C18, 100 mg, 1 mL) are purchased from Thermo Scientific (Houston, Tex., U.S.A). Before the extraction, cartridges are conditioned with acetonitrile, 2×1 mL, followed by water 2×1 mL. After loading the SPE cartridges with plasma samples, they are washed with 2×1 mL of 20% acetonitrile in water followed by elution with a 2×1 mL of acetonitrile. Elute fractions are collected and evaporated to dryness. The residues are reconstituted to solution using appropriate volume of acetonitrile and used for LC-MS analysis.
Brain samples are treated as following: 4.0 mL of acetonitrile is added to 200 mg of tissue sample and homogenized thoroughly using a T25 digital ULTRA-TURRAX® homogenizer (IKA® Works Inc., NC, USA). The homogenized samples are centrifuged for 10 min at 4000 rpm, the supernatant is separated and evaporated under a constant air flow as described above. The residues are reconstituted using appropriate volume of acetonitrile. The reconstituted material is loaded onto the preconditioned SPE cartridges it is then eluted with 2 mL of acetonitrile. Load and elute fractions are collected and evaporated to dryness. The residues are reconstituted to solution with 200 μL acetonitrile and used for LC-MS analysis. […]
Using Heated electrospray ionization source (HESI II) in positive ion mode, capillary temperature 300° C., vaporizer temperature: 250° C., spray voltage 3000 V, sheath gas pressure (N2) 30 units, auxiliary gas pressure (N2) 5 units, ion sweep gas pressure (N2) 1 unit, SKA-41 was analyzed by the selective reaction monitoring (SRM) transition of its molecular ion peak 261.0 (M+1)^+ into 175.0 and 133.0 m/z. An 8-point calibration curve spanning a concentration range from 50 nM to 10 μM range was developed for quantification.

[3] = system: rats injected with kainic acid (KA); assay: Kainic acid (KA) seizure model, behaviour; type: in vivo, rat
Excerpt: […]. Systemic administration of the glutamate analog, kainic acid (KA), to rats produces progressive limbic seizures culminating in status epilepticus that results in neuronal loss within limbic structures in a pattern similar to that observed in human temporal lobe epilepsy.

[4] = Max. solubility (Table 1); type: physicochemical
KCa channels = conditions: cited from earlier work
[5] = Tolerability observation after i.p. dosing of SKA-41; conditions: for tolerability: 10 mg/kg i.p., rats

**Q.** For Nc1nc(-c2ccc(OC(F)(F)F)cc2)cs1 [SKA-41, 4-(4-(Trifluoromethoxy)phenyl)thiazol-2-amine], which “block of transport activity” value [1] is on record?
**A.** ~90%

**Q.** And the inhibition at 10 µM ([1]; Rattus norvegicus, Hippocampal neuron, at 10 μM, read-out: block / inhibition of transport activity)?
**A.** ~90%

**Q.** And the pIC50 ([1]; Rattus norvegicus, Hippocampal neuron, hippocampal neurons in vitro, 14C-MeAIB 20 μM, read-out: IC50 to inhibit activity-regulated Gln/MeAIB transport)?
**A.** ~5.70

**Q.** What about the “Active (annotation beside the compound name: active vs inactive derivatives)” value ([1]; Table 1: SKA-41, and active and inactive derivatives) of the same molecule?
**A.** SKA-41 Active CAS no. 436151-95-0 (Oakwood Chemical)

**Q.** What about the “inhibition of spontaneous activity-regulated 14C-MeAIB transport, in words” value ([1]; screens, 10 μM, GABA 2 mM) of the same molecule?
**A.** active; also recorded: blocked spontaneous transport activity; also recorded: inhibited spontaneous transport activity

**Q.** What about the Kp at 1 h ([2]; Sprague-Dawley, brain/plasma, ip, 10 mg/kg i.p. in Miglyol 812, 1 h, 3 male rats, read-out: brain/plasma ratio) of the same molecule?
**A.** ~7

**Q.** What about the concentration at 1 h ([2]; Sprague-Dawley, brain, read-out: brain concentration, average) of the same molecule?
**A.** 12.6 µM

**Q.** What about the concentration at 1 h ([2]; Sprague-Dawley, plasma, read-out: plasma concentration, average) of the same molecule?
**A.** 1.77 µM

**Q.** And the “brain penetration (brain/plasma ratio) relative to riluzole” value ([2]; in vivo)?
**A.** seven times higher

**Q.** What about the “time until staring and twitching signs disappeared after KA injection” value ([3]; SKA-41 30 mg/kg pretreatment) of the same molecule?
**A.** ≤ 2 h

**Q.** What about the “clonic-tonic convulsions after KA” value ([3]; rat, in vivo) of the same molecule?
**A.** clonic-tonic convulsions were not observed

**Q.** What about the solubility [4] of the same molecule?
**A.** 50 µM (≈ 13 µg/mL)

**Q.** What about the “effect on KCa channels / KCa currents” value (KCa channels) of the same molecule?
**A.** no effect

**Q.** What about the “effect on KCa channels / KCa currents” value (KCa channels; listed as SKA41) of the same molecule?
**A.** no effect; also recorded: inactive

**Q.** And the tolerability [5]?
**A.** well tolerated with no overt toxicity or sedation; also recorded: well tolerated

**Q.** And the tolerability ([5]; listed as SKA41)?
**A.** well tolerated with no overt toxicity or sedation

**Q.** What about the untoward effects ([5]; 10-30 mg/kg) of the same molecule?
**A.** did not observe any untoward effects
